Assay results from ChEMBL document CHEMBL1151449, “In vitro activity of DC-159a, a new broad-spectrum fluoroquinolone, compared with that of other agents against drug-susceptible and -resistant pneumococci” (2008).
Converted amounts (≈) assume the structure as drawn.

Assays:
Assay type in all cases: functional
Streptococcus pneumoniae [1] = assay: Antibacterial activity against Streptococcus pneumoniae HMC 1066 harboring S81F mutation in quinolone-resistant determining regions of GyrA gene, S79F mutation in QRDR of ParC gene and I460V mutation in QRDR of ParE gene by agar dilution method
Streptococcus pneumoniae [2] = assay: Antibacterial activity against Streptococcus pneumoniae HMC 1073 harboring S81F mutation in quinolone-resistant determining regions of GyrA gene, and I460V mutation in QRDR of ParE gene by agar dilution method
Streptococcus pneumoniae [3] = assay: Antibacterial activity against Streptococcus pneumoniae HMC 1147 harboring S81F mutation in quinolone-resistant determining regions of GyrA gene, S79F mutation in QRDR of ParC gene and I460V mutation in QRDR of ParE gene showing efflux to gemifloxacin by agar dilution method
Streptococcus pneumoniae [4] = assay: Antibacterial activity against Streptococcus pneumoniae HMC 1150 harboring S81C mutation in quinolone-resistant determining regions of GyrA gene, S79F mutation in QRDR of ParC gene and I460V mutation in QRDR of ParE gene by agar dilution method
Streptococcus pneumoniae [5] = assay: Antibacterial activity against Streptococcus pneumoniae HMC 5041 harboring S81F and S79F mutation in quinolone-resistant determining regions of GyrA and ParC genes respectively by agar dilution method
Streptococcus pneumoniae [6] = assay: Antibacterial activity against Streptococcus pneumoniae HMC 1055 harboring S81F mutation in quinolone-resistant determining regions of GyrA gene, S79F, K137N mutation in QRDR of ParC gene and I460V mutation in QRDR of ParE gene by agar dilution method
Streptococcus pneumoniae [7] = assay: Antibacterial activity against Streptococcus pneumoniae HMC 1059 harboring S81F mutation in quinolone-resistant determining regions of GyrA gene, S79F, K137N mutation in QRDR of ParC gene and I460N mutation in QRDR of ParE gene by agar dilution method
Streptococcus pneumoniae [8] = assay: Antibacterial activity against Streptococcus pneumoniae HMC 1074 harboring S81F mutation in quinolone-resistant determining regions of GyrA gene, S79F mutation in QRDR of ParC gene and I460V mutation in QRDR of ParE gene by agar dilution method
Streptococcus pneumoniae [9] = assay: Antibacterial activity against penicillin-, quinolone-resistant and macrolide-susceptible Streptococcus pneumoniae HMC 1058 harboring S79F, K137N mutation in quinolone-resistant determining regions of ParC gene and 460V mutation in QRDR of ParE gene by broth microdilution method
Streptococcus pneumoniae [10] = assay: Antibacterial activity against penicillin-resistant and quinolone-susceptible Streptococcus pneumoniae HMC 228 expressing ermB by broth microdilution method
Streptococcus pneumoniae [11] = assay: Antibacterial activity against penicillin-, quinolone-resistant Streptococcus pneumoniae HMC 1541 harboring mutation in L4 protein by broth microdilution method
Streptococcus pneumoniae [12] = assay: Antibacterial activity against quinolone-susceptible and penicillin-intermediate Streptococcus pneumoniae HMC 5048 expressing mefA after 50 passages by broth microdilution method
Streptococcus pneumoniae [13] = assay: Antibacterial activity against Streptococcus pneumoniae HMC 3041 after 50 passages by broth microdilution method
Streptococcus pneumoniae [14] = assay: (§1) Antibacterial activity against penicillin-susceptible, quinolone-resistant Streptococcus pneumoniae HMC 1072 expressing ermB and harboring S81F mutation in quinolone-resistant determining regions of GyrA gene, S79Y mutation in QRDR of ParC gene and I460V mutation in QRDR of ParE gene after 50 passages by broth microdilution method
Streptococcus pneumoniae [15] = assay: (§2) Antibacterial activity against penicillin-resistant and quinolone-susceptible Streptococcus pneumoniae HMC 228 expressing ermB and harboring S81F mutation in quinolone-resistant determining regions of GyrA gene, S79Y mutation in QRDR of ParC gene and I460V mutation in QRDR of ParE gene after 36 passages with moxifloxacin measured after 10 daily antibiotic-free subculturing by multi-step resistance selection technique
Streptococcus pneumoniae [16] = assay: Antibacterial activity against penicillin-resistant and quinolone-susceptible Streptococcus pneumoniae HMC 3583 expressing mefA and harboring I460V mutation in QRDR of ParE gene after 41 passages with gemifloxacin measured after 10 daily antibiotic-free subculturing by multi-step resistance selection technique
Streptococcus pneumoniae [17] = assay: Antibacterial activity against penicillin-intermediate Streptococcus pneumoniae […] by agar dilution method
Streptococcus pneumoniae [18] = assay: Antibacterial activity against azithromycin-susceptible Streptococcus pneumoniae ATCC 49619 by agar dilution method
Streptococcus pneumoniae [19] = assay: Antibacterial activity against azithromycin-resistant Streptococcus pneumoniae […] by agar dilution method
Streptococcus pneumoniae [20] = assay: Antibacterial activity against quinolone-resistant Streptococcus pneumoniae […] by agar dilution method
Streptococcus pneumoniae [21] = assay: Antibacterial activity against Streptococcus pneumoniae HMC 1149 harboring S81F and S79Y mutation in quinolone-resistant determining regions of GyrA and ParC genes respectively showing efflux to ciprofloxacin, gemifloxacin by agar dilution method
Streptococcus pneumoniae [22] = assay: Antibacterial activity against Streptococcus pneumoniae HMC 1151 harboring D83N, K137N mutation in quinolone-resistant determining regions of ParC gene and I460V mutation in QRDR of ParE gene showing efflux to ciprofloxacin, gemifloxacin by agar dilution method
Streptococcus pneumoniae [23] = assay: Antibacterial activity against Streptococcus pneumoniae HMC 1156 harboring S81F and S79F mutation in quinolone-resistant determining regions of GyrA and ParC genes respectively showing efflux to ciprofloxacin, gemifloxacin by agar dilution method
Streptococcus pneumoniae [24] = assay: Antibacterial activity against Streptococcus pneumoniae HMC 1541 harboring S81Y mutation in quinolone-resistant determining regions of GyrA gene, S79F, K137N mutation in QRDR of ParC gene and I460V mutation in QRDR of ParE gene by agar dilution method
Streptococcus pneumoniae [25] = assay: Antibacterial activity against Streptococcus pneumoniae HMC 1062 harboring S81F mutation in quinolone-resistant determining regions of GyrA gene, S79F mutation in QRDR of ParC gene and I460V mutation in QRDR of ParE gene by agar dilution method
Streptococcus pneumoniae [26] = assay: Antibacterial activity against Streptococcus pneumoniae HMC 1068 harboring E85K mutation in quinolone-resistant determining regions of GyrA gene, S79Y, K137N mutation in QRDR of ParC gene and I460V mutation in QRDR of ParE gene showing efflux to ciprofloxacin, levofloxacin by agar dilution method
Streptococcus pneumoniae [27] = assay: Antibacterial activity against penicillin- and quinolone-susceptible Streptococcus pneumoniae HMC 5055 expressing mefA by broth microdilution method
Streptococcus pneumoniae [28] = assay: Antibacterial activity against macrolide-, quinolone-susceptible and penicillin-intermediate Streptococcus pneumoniae HMC 99 by broth microdilution method
Streptococcus pneumoniae [29] = assay: Antibacterial activity against quinolone-susceptible and penicillin-intermediate Streptococcus pneumoniae HMC 441 expressing ermB by broth microdilution method
Streptococcus pneumoniae [30] = assay: Antibacterial activity against quinolone-susceptible and penicillin-intermediate Streptococcus pneumoniae HMC 5048 expressing mefA by broth microdilution method
Streptococcus pneumoniae [31] = assay: as §2, with “3583” for “228”, “mefA” for “ermB”, “D83N” for “S79Y”, “44” for “36”, “levofloxacin” for “moxifloxacin”
Streptococcus pneumoniae [32] = assay: as §1, with “penicillin-, macrolide-susceptible and” for “penicillin-susceptible,”, “1074” for “1072 expressing ermB and”, “S79F” for “S79Y”

## CO/N=C1\CN(c2nc3c(cc2F)c(=O)c(C(=O)O)cn3C2CC2)CC1CN (stereo not drawn) [GEMIFLOXACIN]
Streptococcus pneumoniae [1]
  MIC: 0.25 µg/mL (≈ 0.642 µM)
Streptococcus pneumoniae [2]
  MIC: 0.125 µg/mL (≈ 0.321 µM)
Streptococcus pneumoniae [3]
  MIC: 1 µg/mL (≈ 2.57 µM)
Streptococcus pneumoniae [4]
  MIC: 0.25 µg/mL (≈ 0.642 µM)
Streptococcus pneumoniae [5]
  MIC: 0.5 µg/mL (≈ 1.28 µM)
Streptococcus pneumoniae [6]
  MIC: 0.5 µg/mL (≈ 1.28 µM)
Streptococcus pneumoniae [7]
  MIC: 0.5 µg/mL (≈ 1.28 µM)
Streptococcus pneumoniae [8]
  MIC: 0.5 µg/mL (≈ 1.28 µM)
Streptococcus pneumoniae [9]
  MIC: 0.12 µg/mL (≈ 0.308 µM)
Streptococcus pneumoniae [10]
  MIC: 0.06 µg/mL (≈ 0.154 µM)
Streptococcus pneumoniae [11]
  MIC: 0.5 µg/mL (≈ 1.28 µM)
Streptococcus pneumoniae [12]
  MIC: 0.125 µg/mL (≈ 0.321 µM)
Streptococcus pneumoniae [13]
  MIC: 0.03 µg/mL (≈ 0.077 µM)
Streptococcus pneumoniae [14]
  MIC: 1 µg/mL (≈ 2.57 µM)
Streptococcus pneumoniae [15]
  MIC: 2 µg/mL (≈ 5.14 µM)
Streptococcus pneumoniae [16]
  MIC: 2 µg/mL (≈ 5.14 µM)
Streptococcus pneumoniae [17]
  MIC50: 0.03 µg/mL (≈ 0.077 µM)
  MIC90: 0.06 µg/mL (≈ 0.154 µM)
Streptococcus pneumoniae [18]
  MIC50: 0.03 µg/mL (≈ 0.077 µM)
  MIC90: 0.25 µg/mL (≈ 0.642 µM)
Streptococcus pneumoniae [19]
  MIC50: 0.03 µg/mL (≈ 0.077 µM)
  MIC90: 0.06 µg/mL (≈ 0.154 µM)
Streptococcus pneumoniae [20]
  MIC50: 0.25 µg/mL (≈ 0.642 µM)
  MIC90: 1 µg/mL (≈ 2.57 µM)
Streptococcus pneumoniae [21]
  MIC: 0.25 µg/mL (≈ 0.642 µM)
Streptococcus pneumoniae [22]
  MIC: 0.25 µg/mL (≈ 0.642 µM)
Streptococcus pneumoniae [23]
  MIC: 0.1 µg/mL (≈ 0.257 µM)
Streptococcus pneumoniae [24]
  MIC: 0.25 µg/mL (≈ 0.642 µM)
Streptococcus pneumoniae [25]
  MIC: 1 µg/mL (≈ 2.57 µM)
Streptococcus pneumoniae [26]
  MIC: 0.5 µg/mL (≈ 1.28 µM)
Streptococcus pneumoniae [27]
  MIC: 0.03 µg/mL (≈ 0.077 µM)
Streptococcus pneumoniae [28]
  MIC: 0.06 µg/mL (≈ 0.154 µM)
Streptococcus pneumoniae [29]
  MIC: 0.016 µg/mL (≈ 0.0411 µM)
Streptococcus pneumoniae [30]
  MIC: 0.03 µg/mL (≈ 0.077 µM)
Streptococcus pneumoniae [31]
  MIC: 0.25 µg/mL (≈ 0.642 µM)

## COc1c(N2C[C@@H]3CCCN[C@@H]3C2)c(F)cc2c(=O)c(C(=O)O)cn(C3CC3)c12 [MOXIFLOXACIN]
Streptococcus pneumoniae [1]
  MIC: 2 µg/mL (≈ 4.98 µM)
Streptococcus pneumoniae [2]
  MIC: 2 µg/mL (≈ 4.98 µM)
Streptococcus pneumoniae [3]
  MIC: 4 µg/mL (≈ 9.96 µM)
Streptococcus pneumoniae [4]
  MIC: 1 µg/mL (≈ 2.49 µM)
Streptococcus pneumoniae [5]
  MIC: 4 µg/mL (≈ 9.96 µM)
Streptococcus pneumoniae [6]
  MIC: 4 µg/mL (≈ 9.96 µM)
Streptococcus pneumoniae [7]
  MIC: 4 µg/mL (≈ 9.96 µM)
Streptococcus pneumoniae [8]
  MIC: 2 µg/mL (≈ 4.98 µM)
Streptococcus pneumoniae [9]
  MIC: 2 µg/mL (≈ 4.98 µM)
Streptococcus pneumoniae [10]
  MIC: 0.12 µg/mL (≈ 0.299 µM)
Streptococcus pneumoniae [11]
  MIC: 4 µg/mL (≈ 9.96 µM)
Streptococcus pneumoniae [12]
  MIC: 0.125 µg/mL (≈ 0.311 µM)
Streptococcus pneumoniae [13]
  MIC: 0.25 µg/mL (≈ 0.623 µM)
Streptococcus pneumoniae [14]
  MIC: 4 µg/mL (≈ 9.96 µM)
Streptococcus pneumoniae [32]
  MIC: 8 µg/mL (≈ 19.9 µM)
Streptococcus pneumoniae [15]
  MIC: 2 µg/mL (≈ 4.98 µM)
Streptococcus pneumoniae [16]
  MIC: 0.5 µg/mL (≈ 1.25 µM)
Streptococcus pneumoniae [20]
  MIC50: 4 µg/mL (≈ 9.96 µM)
  MIC90: 4 µg/mL (≈ 9.96 µM)
Streptococcus pneumoniae [21]
  MIC: 0.25 µg/mL (≈ 0.623 µM)
Streptococcus pneumoniae [22]
  MIC: 0.25 µg/mL (≈ 0.623 µM)
Streptococcus pneumoniae [23]
  MIC: 4 µg/mL (≈ 9.96 µM)
Streptococcus pneumoniae [24]
  MIC: 2 µg/mL (≈ 4.98 µM)
Streptococcus pneumoniae [25]
  MIC: 4 µg/mL (≈ 9.96 µM)
Streptococcus pneumoniae [26]
  MIC: 4 µg/mL (≈ 9.96 µM)
Streptococcus pneumoniae [27]
  MIC: 0.25 µg/mL (≈ 0.623 µM)
Streptococcus pneumoniae [29]
  MIC: 0.12 µg/mL (≈ 0.299 µM)
Streptococcus pneumoniae [31]
  MIC: 4 µg/mL (≈ 9.96 µM)
